Like-named read-outs stand apart in the source and are kept apart here.
Key:
[1] = test system: calcium channel binding site for [^3 H]-Nitrendipine (rat brain membranes); assay: [^3 H]-Nitrendipine binding to rat brain membranes; design: species or system rat (male Wistar); details: for Specifically bound [^3 H]-Nitrendipine % of control value: compound concentration 1.0 μM; for Specifically bound [^3 H]-Nitrendipine % of control value / Bound ^3 H at 1.0 μM / Bound ^3 H at 0.1 μM / modulation of [^3 H]-Nitrendipine binding (in words): Table 1a; for Bound ^3 H at 1.0 μM / Bound ^3 H at 0.1 μM: ratio of [^3 H]-Nitrendipine bound at 1.0 and 0.1 μM compound
Protocol: Diltiazem hydrochloride was a generous gift from Goedecke A. G.
Suitable dilutions were made in 50 mM Tris-HCl buffer (pH 7.4) containing 150 mM NaCl and 1 mM CaCl2. The ethanol concentration in the final assay never exceeded 0.1%.
The purity of the radioligand and of the various agents tested was monitored by thin layer chromatography on silica gel plates.
The following procedure was adapted from Bellemann et al (Proc. Nat. Acad. Sci. 80, 2356, 1983), and Gould et al (Proc. Nat. Acad. Sci. 79, 3656, 1982).
Adult male Wistar rats weighing 250-300 g were anesthetized with carbon dioxide prior to decapitation. The brain was removed then immersed in ice-cold 0.32M sucrose and washed 2-3 times with fresh solution. Cerebral cortex was minced and homogenized (Potter-Elvehjem homogenizer) in 10 volumes of ice-cold sucrose solution. The homogenate was centrifuged (4° C.) at 1000×g for 15 minutes. The resulting supernatant was then centrifuged at 90000×g (30 minutes) and the pellet was washed twice with 20 ml ice-cold 50 mM Tris-HCl pH 7.4.
The final pellet was resuspended in 50 mM Tris-HCl pH 7.4/150 mM NaCl/1 mM CaCl2 to give a protein concentration of 4 mg/ml.
The membrane suspension was kept on ice until used. Binding assays were performed in subdued light to prevent dihydropyridine breakdown. Membrane protein (400 μg/tube) was incubated in 50 mM Tris-HCl buffer (pH 7.4)/150 mM NaCl/1 mM CaCl2 with the indicated concentrations of radioligand and test compounds or known calcium antagonists, in a total volume of 2 ml. After the indicated time intervals, the reaction was terminated by rapid filtration through Whatman GF/B glass fiber filters (2.4 cm diameter) on a Millipore filter holder. The assay tube was rinsed with 2 ml ice-cold 50 mM Tris-HCl pH (7.4) and the precipitate was further washed with 2×5 ml of the same buffer.
Filters were dried under a heat lamp and were extracted with 10 ml of liquid scintillation cocktail (Toluene/Triton X-100, 2/1 containing 4 g Omnifluor/1) prior to tritium determination at 48% counting efficiency.
Assays were performed in duplicate or triplicate.
Data were expressed as percent specific [^3 H]-Nitrendipine binding relative to the established control value.
Compound activity in the [^3 H]-Nitrendipine binding assay was evaluated by using the following criteria:
1. [^3 H]-Nitrendipine binding at 1.0 μM compound final concentration was either below 95% or above 105% of the control value determined in absence of compound.
2. […] This ratio is indicative of a dose response relationship within the compound concentration range tested, when the value differs appreciably from 1.0.

[2] = test system: rat trachea contraction induced by KCl depolarization; assay: KCl-induced rat trachea contraction; design: species or system rat (male SHR, Okamoto-Aoki); details: for activity at 1 µM: Rattus norvegicus, 40 min, read-out: Contraction (% max.)
Protocol: Spontaneously hypertensive male rats (SHR) Okamoto-Aoki Strain, weighing 300-400 g were used in this study. They were killed by bleeding after Pentobarbital anesthesia (Nembutal, Abbott Co, 40 mg/kg). Their entire trachea was quickly removed and dissected free of fat and connective tissue in Krebs-Ringer solution. A strip (4 mm×40 mm), obtained by spirally cutting the trachea, was immediately suspended in a 50 ml Krebs-Ringer solution and continuously bubbled with a O2 /CO2 (95/5) mixture. Bath temperature was maintained at 37±1° C. The composition (mM) of the Krebs-Ringer solution modified by Nghiem, was as follows: NaCl, (118.0); KCl, (4.7); CaCl2, (2.5); MgCl2, (1.18); NaHCO3, (12.5); KH2 P04, (1.18); glucose, (5.5) in bidistilled water (pH 7.4). Each strip was equilibrated under initial tension (1.5-2 g) for 1-2 hours and the bath solution changed every 30 min. A contractile or relaxant response was isometrically measured with a force-displacement transducer (Ugo-Basile) and recorded on a polygraph (Beckman).
After equilibration, KCl was added to the bath at 65 mM final concentration. This concentration produced maximum trachea contraction. Under these conditions, a plateau phase showing a tonic sustained contraction was reached within 30 minutes. Drugs were added 30 minutes after the plateau phase has been reached (final concentration=1.0 μM). […] Recordings of the residual trachea contraction were made 40 minutes after drug addition to the bathing fluid. The initial KCl induced contraction was taken as the maximum KCl response (100%). Results were expressed as % of maximal contraction. Nifedipine, Prenylamine, Flunarizine and Diltiazem were used as reference standards to validate this assay.
All 1,3-diphosphonates and drugs were dissolved in saline (0.9% NaCl) except when water insoluble, then the compounds were dissolved in 2% ethanol. The final concentration of ethanol used has been shown not to interfere with the assay.
Results are expressed as mean values±SEM, the Student's t-test was used for statistical analysis.

[3] = final concentration 1.0 μM, 65 mM KCl, 40 minutes after drug addition, mean ± SEM

SMILES	Specifically bound [^3 H]-Nitrendipine % of control value [1]	Bound ^3 H at 1.0 μM / Bound ^3 H at 0.1 μM [1]	activity at 1 µM [2] [%]	activity on KCl-induced trachea contraction (in words) ([2]; final concentration 1.0 μM)	modulation of [^3 H]-Nitrendipine binding (in words) [1]	activity at 1 µM [2, 3] [%]	% [^3 H]-Nitrendipine bound ([1]; reference standards at 1 μM) [%]
O=P(O)(O)CC(Cc1ccccc1)CP(=O)(O)O [Compound 2, 2-Benzyl-1,3-propylidenediphosphonic acid]	98 % of control value	1.002					
O=P(O)(O)CC(CCc1ccccc1)CP(=O)(O)O [Compound 3]	94 % of control value	0.955					
O=P(O)(O)CC(CCCc1ccccc1)CP(=O)(O)O [Compound 4]	99 % of control value	0.957					
O=P(O)(O)CC(Cc1ccc(Cl)cc1)CP(=O)(O)O [Compound 5]	99 % of control value	1.003					
COP(=O)(CC(Cc1ccccc1)CP(=O)(OC)OC)OC [Compound 10, Tetramethyl 2-benzyl-1,3-propylidenediphosphonate]	92 % of control value	0.983	91				
COP(=O)(CC(CCc1ccccc1)CP(=O)(OC)OC)OC [Compound 11]	96 % of control value	1.024					
CCOP(=O)(CC(Cc1cccc2ccccc12)CP(=O)(OCC)OCC)OCC [Compound 37]	104 % of control value	1.011	53.8 ± 0.4	potent pharmacological activity			
CCOP(=O)(CC(Cc1ccc(-c2ccccc2)cc1)CP(=O)(OCC)OCC)OCC [Compound 38]	60 % of control value	0.721	84 ± 2.4	potent pharmacological activity	strong inhibitors		
CCOP(=O)(CC(CP(=O)(OCC)OCC)C(c1ccccc1)c1ccccc1)OCC [Compound 39]	110 % of control value	1.220	96 ± 4.9				
CCOP(=O)(CC(CP(=O)(OCC)OCC)c1ccccn1)OCC [Compound 40]	100 % of control value	0.978	61.2 ± 4.6	potent pharmacological activity			
CC(C)OP(=O)(CC(CCCc1ccccc1)CP(=O)(OC(C)C)OC(C)C)OC(C)C [Compound 56]	115 % of control value	1.115	100		activators		
CCCCCC(CP(=O)(OCCCC)OCCCC)CP(=O)(OCCCC)OCCCC [Compound 66]	26 % of control value	0.387	88.5 ± 0.5		strong inhibitors		
CCCCOP(=O)(CC(CCCC1CCCCC1)CP(=O)(OCCCC)OCCCC)OCCCC [Compound 68, Tetrabutyl 2-(3-Cyclohexylpropyl)-1,3-propylidenediphosphonate]	0 % of control value	0.000	100 ± 4		strong inhibitors		
CCCCOP(=O)(CC(Cc1ccc(-c2ccccc2)cc1)CP(=O)(OCCCC)OCCCC)OCCCC [Compound 84]	80 % of control value	0.886	98.5 ± 2.5				
CCCCOP(=O)(CC(CP(=O)(OCCCC)OCCCC)C(c1ccccc1)c1ccccc1)OCCCC [Compound 85]	112 % of control value	1.082	96.2 ± 0.8				
CCCCOP(=O)(CC(CP(=O)(OCCCC)OCCCC)c1ccccn1)OCCCC [Compound 86]	98 % of control value	1.052	89 ± 2				
CCCCOP(=O)(CC(Cc1ccncc1)CP(=O)(OCCCC)OCCCC)OCCCC [Compound 87]	93 % of control value	0.967	71.9 ± 1.9	potent pharmacological activity			
CCCCOP(=O)(CC(CCCc1cccnc1)CP(=O)(OCCCC)OCCCC)OCCCC [Compound 88]	69 % of control value	0.760	56.3 ± 5.9	potent pharmacological activity	strong inhibitors		
CC(C)COP(=O)(CC(CCCc1ccccc1)CP(=O)(OCC(C)C)OCC(C)C)OCC(C)C [Compound 111]	57 % of control value	0.809				100 ± 1.5	
CCCCCOP(=O)(CC(CCCc1ccccc1)CP(=O)(OCCCCC)OCCCCC)OCCCCC [Compound 112, Tetrapentyl 2-(3-phenylpropyl)-1,3-propylidenediphosphonate]	0 % of control value	0.645				84 ± 3	
CCCCCCOP(=O)(CC(CCCc1ccccc1)CP(=O)(OCCCCCC)OCCCCCC)OCCCCCC [Compound 113, Tetrahexyl 2-(3-phenylpropyl)-1,3-propylidenediphosphonate]	20 % of control value	0.621			strong inhibitors	90 ± 1.5	
CCN(CC)CCCCCCCCOC(=O)c1cc(OC)c(OC)c(OC)c1 [TMB-8, reference compound]							95
